The test system of the experiment is Endogenous Huntingtin Protein (capture with MW1 (expanded polyglutamine) or MAB2166 antibody). In words: Endogenous Huntingtin Protein Assay (ELISA-based Meso Scale Discovery electrochemiluminescence assay). The format is cell-based. The note with it: MSD electrochemiluminescence platform. The procedure, abridged:
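MSD electrochemiluminescence sandwich immunoassay: plates coated with 1 μg/mL MW1 or MAB2166 capture antibody, samples incubated overnight at 4 °C. Detection with rabbit monoclonal #5656S then SULFO-TAG anti-rabbit (each 0.25 μg/mL, 1 h RT).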
On the technique in general: In an ELISA, binding on a coated surface is turned into a signal by an enzyme label.

As to `[2H]C([2H])([2H])n1cc(-c2cnc(-c3ccc(O[C@H]4C[C@]5(C)CC[C@](C)(C4)N5)nn3)c(O)c2)cn1` [Compound 33, 2-(6-{[(1R,3s,5S)-1,5-dimethyl-8-azabicyclo[3.2.1]octan-3-yl]oxy}pyridazin-3-yl)-5-[1-(^2H3)methyl-1H-pyrazol-4-yl]pyridin-3-ol and 2-(6-{[(1S,3r,5R)-1,5-dimethyl-8-azabicyclo[3.2.1]octan-3-yl]oxy}pyridazin-3-yl)-5-[1-(^2H3)methyl-1H-pyrazol-4-yl]pyridin-3-ol], the IC50 is at most 100 nM.

`CC1(C)C[C@H](Oc2ccc(-c3ncc(-c4cn[nH]c4)cc3O)nn2)[C@H](F)C(C)(C)N1` (single isomer, unassigned) [Compound 51, 2-(6-{[(3R,4S)-3-fluoro-2,2,6,6-tetramethylpiperidin-4-yl]oxy}pyridazin-3-yl)-5-(1H-pyrazol-4-yl)pyridin-3-ol or 2-(6-{[(3S,4R)-3-fluoro-2,2,6,6-tetramethylpiperidin-4-yl]oxy}pyridazin-3-yl)-5-(1H-pyrazol-4-yl)pyridin-3-ol]: the IC50 was at most 100 nM.

`Oc1cc(-n2nccn2)cnc1-c1cnc(N2CCN[C@@H](C3CC3)C2)nn1` [Compound 159, 2-{3-[(3S)-3-cyclopropylpiperazin-1-yl]-1,2,4-triazin-6-yl}-5-(2H-1,2,3-triazol-2-yl)pyridin-3-ol] displayed an IC50 of 100 to 500 nM.

In the case of `Cn1cc2cc(-c3cnc(-c4ccc(N5CCNCC5)nn4)c(O)c3)cc(F)c2n1` [Compound 93, 5-(7-fluoro-2-methyl-2H-indazol-5-yl)-2-[6-(piperazin-1-yl)pyridazin-3-yl]pyridin-3-ol], the IC50 is at most 100 nM.

`Cc1cn2cc(-c3cnc(-c4cnc(N5CCN(C)CC5)nn4)c(O)c3)cc(C)c2n1` [Compound 153, 5-(2,8-dimethylimidazo[1,2-a]pyridin-6-yl)-2-[3-(4-methylpiperazin-1-yl)-1,2,4-triazin-6-yl]pyridin-3-ol] had an IC50 of at most 100 nM.

As to `CC1(C)C[C@H](Oc2ccc(-c3ncc(-n4nccn4)cc3O)nn2)[C@H](F)C(C)(C)N1` (single isomer, unassigned) [Compound 11, 2-(6-{[(3R,4S)-3-fluoro-2,2,6,6-tetramethylpiperidin-4-yl]oxy}pyridazin-3-yl)-5-(2H-1,2,3-triazol-2-yl)pyridin-3-ol or 2-(6-{[(3S,4R)-3-fluoro-2,2,6,6-tetramethylpiperidin-4-yl]oxy}pyridazin-3-yl)-5-(2H-1,2,3-triazol-2-yl)pyridin-3-ol], the IC50 is at most 100 nM.

As to `COc1cc(-c2cnc(-c3ccc(N4CC[C@@H](NC(C)(C)C)C4)nn3)c(O)c2)ncn1` [Compound 30, 2-{6-[(3R)-3-(tert-butylamino)pyrrolidin-1-yl]pyridazin-3-yl}-5-(6-methoxypyrimidin-4-yl)pyridin-3-ol], the IC50 was at most 100 nM.

The compound `[2H]C([2H])([2H])n1cc(-c2cnc(-c3ccc(O[C@H]4C[C@@H](C)NC5(CC5)C4)nn3)c(O)c2)cn1` [Compound 82, 2-(6-{[(5R,7S)-5-methyl-4-azaspiro[2.5]octan-7-yl]oxy}pyridazin-3-yl)-5-[1-(^2H3)methyl-1H-pyrazol-4-yl]pyridin-3-ol] returned an IC50 of at most 100 nM.

`Cn1cc2cc(-c3cnc(-c4ccc(OC5CC(C)(C)NC(C)(C)C5)nn4)c(O)c3)cc(F)c2n1` [Compound 52, 5-(7-fluoro-2-methyl-2H-indazol-5-yl)-2-{6-[(2,2,6,6-tetramethylpiperidin-4-yl)oxy]pyridazin-3-yl}pyridin-3-ol] had a half-inhibitory concentration (IC50) of at most 100 nM.

Compound “5-(7-fluoro-2-methyl-2H-indazol-5-yl)-2-{6-[(3R,5S)-3,4,5-trimethylpiperazin-1-yl]pyridazin-3-yl}pyridin-3-ol and 5-(7-fluoro-2-methyl-2H-indazol-5-yl)-2-{6-[(3S,5R)-3,4,5-trimethylpiperazin-1-yl]pyridazin-3-yl}pyridin-3-ol [Compound 91]” displayed an IC50 of at most 100 nM.

Regarding “5-(2,4-dimethyl-1,3-benzoxazol-6-yl)-2-(6-{[(3R,4S)-3-fluoro-2,2,6,6-tetramethylpiperidin-4-yl]oxy}pyridazin-3-yl)pyridin-3-ol and 5-(2,4-dimethyl-1,3-benzoxazol-6-yl)-2-(6-{[(3S,4R)-3-fluoro-2,2,6,6-tetramethylpiperidin-4-yl]oxy}pyridazin-3-yl)pyridin-3-ol [Compound 56]”, the IC50 is at most 100 nM.

`CN(c1ncc(-c2ncc(-n3nccn3)cc2O)nn1)C1CC(C)(C)NC(C)(C)C1` [Compound 144, 2-{3-[methyl(2,2,6,6-tetramethylpiperidin-4-yl)amino]-1,2,4-triazin-6-yl}-5-(2H-1,2,3-triazol-2-yl)pyridin-3-ol]: the IC50 is at most 100 nM.

Turning to `CN[C@@H]1CCN(c2ccc(-c3ncc(-c4ncco4)cc3O)nn2)C1` [Compound 80, 2-{6-[(3R)-3-(methylamino)pyrrolidin-1-yl]pyridazin-3-yl}-5-(1,3-oxazol-2-yl)pyridin-3-ol], the IC50 fell in the range of 100 to 500 nM.

“2-(3-{[(3S,4S)-3-fluoro-2,2,6,6-tetramethylpiperidin-4-yl]amino}-1,2,4-triazin-6-yl)-5-(1H-pyrazol-4-yl)pyridin-3-ol and 2-(3-{[(3R,4R)-3-fluoro-2,2,6,6-tetramethylpiperidin-4-yl]amino}-1,2,4-triazin-6-yl)-5-(1H-pyrazol-4-yl)pyridin-3-ol [Compound 139]” registered an IC50 of at most 100 nM.

With “2-{6-[(3R)-(tert-butylamino)pyrrolidin-1-yl]pyridazin-3-yl}-5-(1-methyl-1H-pyrazol-3-yl)pyridin-3-ol and 2-{6-[(3S)-(tert-butylamino)pyrrolidin-1-yl]pyridazin-3-yl}-5-(1-methyl-1H-pyrazol-3-yl)pyridin-3-ol [Compound 17]”, the IC50 lay within 500 to 1000 nM.

Compound `Cc1cn2cc(-c3cnc(-c4ccc(N5C[C@@H](C)N[C@@H](C)C5)nn4)c(O)c3)cnc2n1` [Compound 115, 2-{6-[(3R,5S)-3,5-dimethylpiperazin-1-yl]pyridazin-3-yl}-5-(2-methylimidazo[1,2-a]pyrimidin-6-yl)pyridin-3-ol and 2-{6-[(3S,5R)-3,5-dimethylpiperazin-1-yl]pyridazin-3-yl}-5-(2-methylimidazo[1,2-a]pyrimidin-6-yl)pyridin-3-ol] registered an IC50 of 100 to 500 nM.

Compound `Cn1cc2cc(-c3cnc(-c4ccc(N5CC(C)(C)NC(C)(C)C5)nn4)c(O)c3)cc(F)c2n1` [Compound 89, 5-(7-fluoro-2-methyl-2H-indazol-5-yl)-2-[6-(3,3,5,5-tetramethylpiperazin-1-yl)pyridazin-3-yl]pyridin-3-ol] displayed an IC50 of at most 100 nM.

As for “2-(6-{[(3R,4S)-3-fluoro-2,2,6,6-tetramethylpiperidin-4-yl]oxy}pyridazin-3-yl)-5-(2-methylimidazo[1,2-a]pyrimidin-6-yl)pyridin-3-ol and 2-(6-{[(3S,4R)-3-fluoro-2,2,6,6-tetramethylpiperidin-4-yl]oxy}pyridazin-3-yl)-5-(2-methylimidazo[1,2-a]pyrimidin-6-yl)pyridin-3-ol [Compound 54]”, the IC50 is at most 100 nM.

Compound “2-(6-{[(1R,3s,5S)-1,5-dimethyl-8-azabicyclo[3.2.1]octan-3-yl]oxy}pyridazin-3-yl)-5-(1H-1,2,3-triazol-1-yl)pyridin-3-ol and 2-(6-{[(1S,3r,5R)-1,5-dimethyl-8-azabicyclo[3.2.1]octan-3-yl]oxy}pyridazin-3-yl)-5-(1H-1,2,3-triazol-1-yl)pyridin-3-ol [Compound 71]” returned an IC50 of 100 to 500 nM.

In the case of `CN(c1ncc(-c2ncc(-c3cn[nH]c3)cc2O)nn1)C1CC(C)(C)NC(C)(C)C1` [Compound 135, 2-{3-[methyl(2,2,6,6-tetramethylpiperidin-4-yl)amino]-1,2,4-triazin-6-yl}-5-(1H-pyrazol-4-yl)pyridin-3-ol], the IC50 is at most 100 nM.

`CC(C)[C@H]1CN(c2ncc(-c3ncc(-c4cc(F)c5nn(C)cc5c4)cc3O)nn2)CCN1` [Compound 155, 5-(7-fluoro-2-methyl-2H-indazol-5-yl)-2-{3-[(3S)-3-(propan-2-yl)piperazin-1-yl]-1,2,4-triazin-6-yl}pyridin-3-ol] returned an IC50 of at most 100 nM.

Regarding `Cc1cn2cc(-c3cnc(-c4ccc(O[C@@H]5CC(C)(C)NC(C)(C)[C@@H]5F)nn4)c(O)c3)cc2c(C)n1.Cc1cn2cc(-c3cnc(-c4ccc(O[C@H]5CC(C)(C)NC(C)(C)[C@H]5F)nn4)c(O)c3)cc2c(C)n1` (mixture of isomers) [Compound 67, 5-(1,3-dimethylpyrrolo[1,2-a]pyrazin-7-yl)-2-(6-{[(3R,4S)-3-fluoro-2,2,6,6-tetramethylpiperidin-4-yl]oxy}pyridazin-3-yl)pyridin-3-ol and 5-(1,3-dimethylpyrrolo[1,2-a]pyrazin-7-yl)-2-(6-{[(3S,4R)-3-fluoro-2,2,6,6-tetramethylpiperidin-4-yl]oxy}pyridazin-3-yl)pyridin-3-ol], the IC50 was at most 100 nM.

Turning to `CC1(C)C[C@@H](Oc2ccc(-c3ncc(-c4cn[nH]c4)cc3O)nn2)[C@@H](F)C(C)(C)N1` (single isomer, unassigned) [Compound 39, 2-(6-{[(3S,4R)-3-fluoro-2,2,6,6-tetramethylpiperidin-4-yl]oxy}pyridazin-3-yl)-5-(1H-pyrazol-4-yl)pyridin-3-ol or 2-(6-{[(3S,4R)-3-fluoro-2,2,6,6-tetramethylpiperidin-4-yl]oxy}pyridazin-3-yl)-5-(1H-pyrazol-4-yl)pyridin-3-ol], the IC50 is at most 100 nM.

For `CCc1cc(-c2cnc(-c3cnc(N4CC[C@@H](NC(C)(C)C)C4)nn3)c(O)c2)cn2cc(C)nc12` [Compound 148, 2-{3-[(3R)-3-(tert-butylamino)pyrrolidin-1-yl]-1,2,4-triazin-6-yl}-5-(8-ethyl-2-methylimidazo[1,2-a]pyridin-6-yl)pyridin-3-ol], the 50% inhibitory concentration (IC50) was 100 to 500 nM.

As usually defined, the IC50 is the concentration that inhibits the measured activity by half.

Source of the values: patent publication US12577226B2, “Compounds for treating Huntington's disease” (PTC THERAPEUTICS, INC., priority 2019, dated 2026).
